According to patent US20110282066A1, “SCREENING METHOD FOR SUBSTANCE USEFUL AS AGENT FOR TREATING PROSTATE CANCER” (priority 2009, published 2011):

Assays:
[1] = test system: testosterone production in the CWR22R tumor; assay: Testosterone production suppression in the tumor of a CWR22R tumor-bearing mouse; type: in vivo, nude mouse; settings: 22Rv1, 10 mg/kg oral, androstenedione 1 ng/100 mm^3 into the tumor an hour later, dissection an hour after that, read-out: Inh (%) testosterone production suppression rate
Excerpt: Inhibition rate (%)=100×(average value of the hormone concentration in the solvent for administering test substance-administered group−average value of the hormone concentration in the test substance-administered group)/(average value of the hormone concentration in the solvent for administering test substance-administered group−average value of the background hormone concentration)
A CWR22R tumor was excised from a CWR22R subcutaneous tumor-bearing nude mouse. The excised tumor was segmented to become tumor specimens with size of about 5 mm per specimen. The tumor specimens were washed with a 20% serum-containing RPMI1640 culture medium twice and then stirred for about 20 minutes in a 0.1% protease and 20% serum-containing RPMI1640 culture medium. Supernatant was recovered to recover cells through centrifugation. These procedures were repeated as necessary, recovered cells were collected, and thereby the cell solution was prepared. After the cell number was counted, the cell solution was adjusted to 2×10^7 cells/mL. The same amount of the cell solution and Matrigel were mixed and adjusted to the final value of 1×10^7 cells/mL. 0.1 mL of the cell Matrigel mixture prepared in the above-described manner was subcutaneously injected to one site of the back of a male nude mouse with testectomy for the transplant. After the transplant, at a time point when the tumor volume reached 100 mm^3 or more, grouping was performed based on the tumor volume to conduct the following experiments.
Test substances were orally administered to the CWR22R subcutaneous tumor-bearing mouse. After an hour, that is, an hour before dissection, androstenedione was administered into the tumor to yield a level of 1 ng/100 mm^3 in the tumor. The composition of the liquid for administering androstenedione included 0.000075% DMF/0.00005% polysorbate 80/9.999875% saline/90% Matrigel. Tumor excision was performed through the dissection, and the tumor was weighed and then frozen for preservation. For the purpose of measuring the background value, the tumor of the mouse to which only the solvent for administering test substances had been orally administered was excised. Subsequently, under the ice cooling, the liquid for administering androstenedione was added thereto, and the resultant was subjected to quick-freezing for preservation.
To the tumor sample preserved through freezing was added a 0.2 M Na-K phosphate buffer (pH 7.4), and thereby a tumor homogenate was prepared under ice cooling by using a homogenizer (polytron). Tert-butyl methyl ether with a 6-fold capacity was added to the tumor homogenate, followed by centrifugation (3000 rpm, 5 min), and the supernatant was transferred to another test tube. While the test tube was maintained at 40° C. in a heat block, the solvent was evaporated by nitrogen gas. 2% BSA-containing 10 mM Tris-Cl buffer (pH 7.4) was added to the test tube and mixed to obtain an extract, and the testosterone concentration was measured by using DELFIA (trademark) Testosterone Reagents R050-201 (manufactured by PerkinElmer, Inc.).
The testosterone production suppression rates (%) of some Reference Example compounds in the tumor of CWR22R tumor-bearing mouse are shown in Table 25. Ex represents a Reference Example number, Inh represents the testosterone production suppression rates upon administration of 10 mg/kg of the Reference Example compounds.

[2] = target: T1, human 17βHSD type 3 (Homo sapiens, UniProt P37058); assay: Measurement of enzyme activity of human 17βHSD type 3; type: biochemical; settings: enzyme source: supernatant of transformed 293 cells; read-out: Type3 IC50
T1 construct: A full-length cDNA encoding human 17βHSD type 3 used in the pharmacological test; made in house; host or cells: human fetus kidney-derived 293 cells (transfected; supernatant of disrupted cells, not purified)
T1 sequence (P37058 1-310): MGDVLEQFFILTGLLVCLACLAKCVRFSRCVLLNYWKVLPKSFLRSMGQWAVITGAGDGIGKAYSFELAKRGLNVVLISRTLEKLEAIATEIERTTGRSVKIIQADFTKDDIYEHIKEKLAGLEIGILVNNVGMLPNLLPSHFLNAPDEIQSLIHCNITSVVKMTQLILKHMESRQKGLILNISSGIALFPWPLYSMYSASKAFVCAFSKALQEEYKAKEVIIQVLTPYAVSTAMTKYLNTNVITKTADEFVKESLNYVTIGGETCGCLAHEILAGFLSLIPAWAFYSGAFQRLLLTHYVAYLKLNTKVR
Experimental: A full-length cDNA encoding human 17βHSD type 3 used in the pharmacological test of this test example was obtained by the PCR method using a cDNA derived from human testis as a template. The nucleotide sequence of the obtained cDNA was analyzed by the dideoxyterminator method, and the clone matched with the known human 17βHSD type 3 sequence (GenBank accession No. BC034281) was selected. Subsequently, human fetus kidney-derived cell line, 293 cells, were transformed with a plasmid containing the cDNA, and the cells were collected 24 hours later. […]
Enzyme activity was measured referring to Trevor M. Penning, et al., Biochem. J., 351, 67-77, (2000). Specifically, using a 100 mM potassium phosphate buffer (pH 6.0), (1) the enzyme purified in Section 1 at a final concentration of 10 μg/mL, (2) androstenedione at a final concentration of 300 nM, (3) NADPH at a final concentration of 200 μM, and (4) a test substance, were mixed to react at room temperature for 2 hours, and then the amount of testosterone produced was measured using DELFIA (trademark) Testosterone Reagents R050-201 (manufactured by PerkinElmer). […] Then, IC50 values were calculated by the Logistic regression method.

Structure (SMILES)	inhibition at 10 mg/kg [1] [%]	IC50 [2] [µM]
COCCc1cn(-c2cccc(C(=O)O)c2)c2ccc(C(F)(F)F)cc12 [Reference Example 47, 3-[3-(2-methoxyethyl)-5-(trifluoromethyl)-1H-indol-1-yl]benzoic acid]	33	–
O=C(O)c1cccc(-n2c(C(F)(F)F)nc3cc(C(F)(F)F)ccc32)c1 [Reference Example 54, 3-[2,5-bis(trifluoromethyl)-1H-benzimidazol-1-yl]benzoic acid]	99	–
O=C(O)c1cccc(-n2c(-c3ccccc3)nc3cc(C(F)(F)F)ccc32)c1 [compound 17, 3-[2-phenyl-5-(trifluoromethyl)-1H-benzimidazol-1-yl]benzoic acid]	75	–
O=C(O)c1cccc(-n2cnc3cc(C(F)(F)F)ccc32)c1 [compound 20, 3-[5-(trifluoromethyl)-1H-benzimidazol-1-yl]benzoic acid]	89	–
Cc1nc2cc(C(F)(F)F)ccc2n1-c1cccc(C(=O)O)c1 [compound 21, 3-[2-methyl-5-(trifluoromethyl)-1H-benzimidazol-1-yl]benzoic acid]	97	–
CCCc1nc2cc(C(F)(F)F)ccc2n1-c1cccc(C(=O)O)c1 [compound 23, 3-[2-propyl-5-(trifluoromethyl)-1H-benzimidazol-1-yl]benzoic acid]	96	–
COc1nc2cc(C(F)(F)F)ccc2n1-c1cccc(C(=O)O)c1 [compound 32, 3-[2-methoxy-5-(trifluoromethyl)-1H-benzimidazol-1-yl]benzoic acid]	–	> 10
Cc1cccc(-c2nc3cc(C(F)(F)F)ccc3n2-c2cccc(C(=O)O)c2)c1 [compound 36, 3-[2-(3-methylphenyl)-5-(trifluoromethyl)-1H-benzimidazol-1-yl]benzoic acid]	45	–
O=C(O)c1cccc(-n2c(Cc3ccccc3)nc3cc(C(F)(F)F)ccc32)c1 [compound 38, 3-[2-benzyl-5-(trifluoromethyl)-1H-benzimidazol-1-yl]benzoic acid]	66	–
O=C(O)c1cccc(-n2c(Cc3cccc(F)c3)nc3cc(C(F)(F)F)ccc32)c1 [compound 39, 3-[2-(3-fluorobenzyl)-5-(trifluoromethyl)-1H-benzimidazol-1-yl]benzoic acid]	31	–
O=C(O)c1cccc(-n2c(Cc3ccc(F)cc3)nc3cc(C(F)(F)F)ccc32)c1 [compound 40, 3-[2-(4-fluorobenzyl)-5-(trifluoromethyl)-1H-benzimidazol-1-yl]benzoic acid]	49	–
O=C(O)c1cccc(-n2c(Cc3ccc(Cl)cc3)nc3cc(C(F)(F)F)ccc32)c1 [compound 41, 3-[2-(4-chlorobenzyl)-5-(trifluoromethyl)-1H-benzimidazol-1-yl]benzoic acid]	45	–
O=C(O)c1cccc(-n2c(COc3ccccc3)nc3cc(C(F)(F)F)ccc32)c1 [compound 44, 3-[2-phenoxymethyl-5-(trifluoromethyl)-1H-benzimidazol-1-yl]benzoic acid]	–	> 10
O=C(O)c1cccc(-n2c(COc3ccc(F)cc3)nc3cc(C(F)(F)F)ccc32)c1 [compound 45]	94	–
